Test results reported in ChEMBL document CHEMBL1201862, “PubChem BioAssay data set” (2004).
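A five-concentration, 48-hour dose response in 96-well plates underlies each endpoint, interpolated linearly between surrounding concentrations. GI50 = concentration required for 50% inhibition of growth.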 Active and inactive are the calls of the source. Rule as the data show it: active = GI50 up to about 1.1 µM and inactive = higher.

Assays:
Assay in all cases: inhibition of tumour cell growth, NCI panel, 48 h
786-0 = tested on: 786-0
ACHN = tested on: ACHN
CCRF-CEM = tested on: CCRF-CEM
COLO 205 = tested on: COLO 205
DMS-273 = tested on: DMS-273
HCC 2998 = tested on: HCC 2998
K562 = tested on: K562
NCI-H226 = tested on: NCI-H226
NCI-H460 = tested on: NCI-H460
OVCAR-3 = tested on: OVCAR-3
OVCAR-5 = tested on: OVCAR-5
RXF 393 = tested on: RXF 393
SF-295 = tested on: SF-295
SNB-19 = tested on: SNB-19
SNB-75 = tested on: SNB-75
UACC-257 = tested on: UACC-257
UACC-62 = tested on: UACC-62

CC(C)(C)C1CCC2c3c([nH]c4ncccc34)C3C(=O)N(c4ccccc4)C(=O)C3C2C1 (configuration not stated)
GI50 (786-0): > 100 µM (inactive) | GI50 (ACHN): > 100 µM (inactive) | GI50 (CCRF-CEM): 49.7 µM (inactive) | GI50 (COLO 205): > 100 µM (inactive) | GI50 (DMS-273): > 100 µM (inactive) | GI50 (HCC 2998): > 100 µM (inactive) | GI50 (K562): > 100 µM (inactive) | GI50 (NCI-H226): > 100 µM (inactive) | GI50 (NCI-H460): > 100 µM (inactive) | GI50 (OVCAR-3): > 100 µM (inactive) | GI50 (OVCAR-5): > 100 µM (inactive) | GI50 (RXF 393): > 100 µM (inactive) | GI50 (SF-295): > 100 µM (inactive) | GI50 (SNB-19): > 100 µM (inactive) | GI50 (SNB-75): 24.6 µM (inactive) | GI50 (UACC-257): > 100 µM (inactive) | GI50 (UACC-62): > 100 µM (inactive)

O=C1C2=C(CC3C(C2)C3(Br)Br)C(=O)C2=C1CC1C(C2)C1(Br)Br (configuration not stated)
GI50 (786-0): > 100 µM (inactive) | GI50 (ACHN): > 100 µM (inactive) | GI50 (CCRF-CEM): 61.9 µM (inactive) | GI50 (COLO 205): > 100 µM (inactive) | GI50 (DMS-273): > 100 µM (inactive) | GI50 (HCC 2998): > 100 µM (inactive) | GI50 (K562): > 100 µM (inactive) | GI50 (NCI-H226): > 100 µM (inactive) | GI50 (NCI-H460): > 100 µM (inactive) | GI50 (OVCAR-3): > 100 µM (inactive) | GI50 (OVCAR-5): > 100 µM (inactive) | GI50 (RXF 393): > 100 µM (inactive) | GI50 (SF-295): > 100 µM (inactive) | GI50 (SNB-19): > 100 µM (inactive) | GI50 (SNB-75): > 100 µM (inactive) | GI50 (UACC-257): > 100 µM (inactive) | GI50 (UACC-62): > 100 µM (inactive)

CCCCCCCCCCCCCC/C(C(=O)OC)=C(/O)C(=O)OCC
GI50 (786-0): 19.7 µM (inactive) | GI50 (ACHN): 28.9 µM (inactive) | GI50 (CCRF-CEM): 42.5 µM (inactive) | GI50 (COLO 205): 90.8 µM (inactive) | GI50 (DMS-273): 94 µM (inactive) | GI50 (HCC 2998): 19.9 µM (inactive) | GI50 (K562): 27 µM (inactive) | GI50 (NCI-H226): > 100 µM (inactive) | GI50 (NCI-H460): 37.8 µM (inactive) | GI50 (OVCAR-3): > 100 µM (inactive) | GI50 (OVCAR-5): 27 µM (inactive) | GI50 (RXF 393): 99.5 µM (inactive) | GI50 (SF-295): 20.6 µM (inactive) | GI50 (SNB-19): 40.9 µM (inactive) | GI50 (SNB-75): 33 µM (inactive) | GI50 (UACC-257): 63.5 µM (inactive) | GI50 (UACC-62): 16.9 µM (inactive)

NC1=NCCC1(c1ccccc1)c1ccccn1 (configuration not stated)
GI50 (786-0): > 100 µM (inactive) | GI50 (ACHN): > 100 µM (inactive) | GI50 (CCRF-CEM): > 100 µM (inactive) | GI50 (COLO 205): > 100 µM (inactive) | GI50 (DMS-273): > 100 µM (inactive) | GI50 (HCC 2998): > 100 µM (inactive) | GI50 (K562): > 100 µM (inactive) | GI50 (NCI-H226): > 100 µM (inactive) | GI50 (NCI-H460): > 100 µM (inactive) | GI50 (OVCAR-3): > 100 µM (inactive) | GI50 (OVCAR-5): > 100 µM (inactive) | GI50 (RXF 393): > 100 µM (inactive) | GI50 (SF-295): > 100 µM (inactive) | GI50 (SNB-19): > 100 µM (inactive) | GI50 (SNB-75): > 100 µM (inactive) | GI50 (UACC-257): > 100 µM (inactive) | GI50 (UACC-62): > 100 µM (inactive)

Cc1cc(=O)n2c(cc3cccccc32)n1
GI50 (786-0): > 100 µM (inactive) | GI50 (ACHN): > 100 µM (inactive) | GI50 (CCRF-CEM): > 100 µM (inactive) | GI50 (COLO 205): > 100 µM (inactive) | GI50 (DMS-273): > 100 µM (inactive) | GI50 (HCC 2998): > 100 µM (inactive) | GI50 (K562): > 100 µM (inactive) | GI50 (NCI-H226): > 100 µM (inactive) | GI50 (NCI-H460): > 100 µM (inactive) | GI50 (OVCAR-3): > 100 µM (inactive) | GI50 (OVCAR-5): > 100 µM (inactive) | GI50 (RXF 393): > 100 µM (inactive) | GI50 (SF-295): > 100 µM (inactive) | GI50 (SNB-19): > 100 µM (inactive) | GI50 (SNB-75): > 100 µM (inactive) | GI50 (UACC-257): > 100 µM (inactive) | GI50 (UACC-62): > 100 µM (inactive)

CCOC(=O)c1ccc(NC(=O)SCCC(=O)O)cc1
GI50 (786-0): > 100 µM (inactive) | GI50 (ACHN): 51.1 µM (inactive) | GI50 (CCRF-CEM): > 100 µM (inactive) | GI50 (COLO 205): > 100 µM (inactive) | GI50 (DMS-273): > 100 µM (inactive) | GI50 (HCC 2998): > 100 µM (inactive) | GI50 (K562): 63.1 µM (inactive) | GI50 (NCI-H226): 3.15 µM (inactive) | GI50 (NCI-H460): > 100 µM (inactive) | GI50 (OVCAR-3): > 100 µM (inactive) | GI50 (OVCAR-5): > 100 µM (inactive) | GI50 (RXF 393): 8.04 µM (inactive) | GI50 (SF-295): > 100 µM (inactive) | GI50 (SNB-19): > 100 µM (inactive) | GI50 (SNB-75): < 0.01 µM (active) | GI50 (UACC-257): > 100 µM (inactive) | GI50 (UACC-62): 39.5 µM (inactive)
